The source of these data is PubChem BioAssay AID686982.

A word on the viability: it is a read-out of living cells in per cent, often relative to untreated cells.

The nature of assay [1]: Plasmodium hepatic-stage parasite load reduction – cell-based, HepG2, luciferase, host viability, known kinase inhibitors, confirmation (AID 686982). Particulars: P. berghei liver stage in HepG2, luciferase, 48 h; measured here: HepG2 viability, % of control; at 10 µM; stronger effect = lower value.
For assay [2], the system named is P. berghei liver stage in HepG2, luciferase, 48 h. The description is as above. The following applies: at 10 µM; stronger effect = lower value.

Consider `COc1cc[nH]c1C=C1C(=O)Nc2ccc(F)c(C#CC3(O)CCOCC3)c21`, for which the viability in assay [1] turned out to be 111%. The parasite load, % of control in assay [2] is 1.05%.
In the case of `Cc1ccc2c(-c3ccnc(Nc4ccccc4)n3)c(-c3ccc(F)cc3)nn2n1`, the viability in assay [1] stood at 206%. In addition, the parasite load, % of control in assay [2] was 1.15%.
Take `Fc1ccc(-c2c(-c3ccncc3)[nH]c3cccnc23)cc1`: the viability in assay [1] was 163%. Further, the parasite load, % of control in assay [2] is 1.19%.
